In publication PMC12040169 (PLOS Biology, 2025) one finds viability data, which are given here for 91 molecules.

This series in a line: in vitro. As to conditions: human, hela cells, % viability.

Regarding `O=C(c1cccs1)N1CCCN(c2nccc(C(F)(F)F)n2)CC1` [CBK019390], the viability at 28.5 h, 10 µM is 89.4%.

Regarding `OCC(O)/C=N/Nc1nc(N2CCCCC2)nc(N2CCCCC2)n1` (stereo not shown) [CBK019423], the viability at 28.5 h, 10 µM was 107%. On the same count and under the same terms, to `Cc1ncc(-c2ccc3ccccc3c2)s1` [CBK019439B] belongs 91.5%. Same read-out and setting: as for `Cc1cc2cc3n(c2nn1)N=C(Cl)CC3` [CBK019458], the figure is 91.4%; as for `O=C(Oc1cccc2cccnc12)c1ccc(Br)o1` [CBK019461], 89.4%.

Take `CCCCCC1CC(CC(=O)NC(=S)Nc2ccccc2Cl)C(=O)O1` (stereo not shown) [CBK019495]: the viability at 28.5 h, 10 µM amounted to 86.8%.

As for `O=C(O)C1CSC(c2cc3ccccc3o2)N1` (stereo not shown) [CBK019502], the viability at 28.5 h, 10 µM amounted to 93.7%. For the molecule `O=C(Cc1nc2ccccc2[nH]1)N1CCOCC1` [CBK019505], the viability at 28.5 h, 10 µM is 93.7%. Turning to `CCOC(=O)c1[nH]c(=O)[nH]c1CSc1nc(C)cc(C)n1` [CBK019514], the viability at 28.5 h, 10 µM was found to be 109%. `CCCCSc1nnc(-c2cc3c(C(F)(F)F)nn(C)c3s2)n1C` [CBK019526]: the viability at 28.5 h, 10 µM amounted to 97.5%. On the same count and under the same terms, as for `N#Cc1c2ccccc2cn1Cc1cccc(Cl)c1` [CBK019531], the figure is 82.6%; as for `Oc1cc2nnnn2nc1-c1ccccc1` [CBK019550], 101%; as for `CC1(C)CC(N(Cc2ccccc2)C(=O)Cc2ccco2)CCO1` (stereo not shown) [CBK019561], 95.9%. On the same count and under the same terms, as for `Brc1nc2c3c(nc(N4CCOCC4)c2s1)CCCC3` [CBK019604], the figure is 83.4%. Same read-out and setting: to `NC(=O)CC1C=CS(=O)(=O)C1` (stereo not shown) [CBK019653] belongs 76.7%; to `CCOc1cc(C(=S)N2CCCCC2)ccc1OC(=O)c1ccccc1Cl` [CBK019660], 98.9%; to `CC1=Nc2c(ccc3nsnc23)NC(=O)C1` [CBK019676], 97.1%.

In the case of `C#CCOC(=O)Nc1cnc(N2CCOCC2)c(C(F)(F)F)c1` [CBK019679], the viability at 28.5 h, 10 µM was determined as 90.5%. In the case of `CSc1nc(=O)c(CCC(=O)O)n[nH]1` [CBK019689], the viability at 28.5 h, 10 µM came to 110%. Same read-out and setting: as for `CC(C)/N=C1/N[C@@H]2CS(=O)(=O)C[C@H]2O1` [CBK019692G], the figure is 87%. Still for that read-out and setting: as for `CCc1nc(C)ccc1OCC(O)CNC(C)(C)C` (stereo not shown) [CBK019698], the figure is 94.3%; as for `Cc1ccc(-c2csc3ncn4nnnc4c23)cc1` [CBK019710], 92.5%; as for `O=C(O)COc1cccc2nsnc12` [CBK019749], 95.1%.

For the molecule `CCn1c2ccccc2c2cc(C(N)=O)c(N)nc21` [CBK019787], the viability at 28.5 h, 10 µM was 85.2%.

As for `CSc1nn(C)c(=O)c2c3c(sc12)CCC3` [CBK019796], the viability at 28.5 h, 10 µM is 83.7%. The same measure, in the same setting: to `CC(=O)Nc1ccc(C2=NC3SC(c4ccc(NC(C)=O)cc4)=NC3S2)cc1` (stereo not shown) [CBK019799] belongs 103%; to `CN(C)c1nc(N(C)C)n(C(=O)c2cccs2)n1` [CBK019805], 99.3%; to `Cc1nc(N)c(CNC2CCCCC2)c(O)n1` [CBK019809], 112%. In the case of `O=C(NCC1CCCO1)NC(=O)c1nsc2ccccc12` (stereo not shown) [CBK019827], the viability at 28.5 h, 10 µM stood at 113%. As for `CSC1=Nc2cc(Cl)ccc2SCC1` [CBK019829], the viability at 28.5 h, 10 µM is 98.1%.

For `Cc1cc(C)nc(SCc2csc(N)n2)n1` [CBK019838], the viability at 28.5 h, 10 µM stood at 106%. The same measure, in the same setting: to `Brc1ccsc1-c1csc(-c2ccccc2)n1` [CBK019859] belongs 102%; to `CC(C)CSc1nsc(N)n1` [CBK019938], 97.1%; to `CC1(C)CC(=O)c2sc(NC(=O)c3cccc(C(F)(F)F)c3)nc2C1` [CBK019941], 94.2%.

For `O=C(CN1CCOCC1)N/N=C/c1ccncc1` [CBK019949], the viability at 28.5 h, 10 µM was 83.8%.

Regarding `O=C(Nc1ccc(F)cc1F)Nc1cc(Cl)sc1Cl` [CBK019967], the viability at 28.5 h, 10 µM was found to be 102%. The same measure, in the same setting: to `CCCCCC1/C(=N\O)CCC1CC(=O)OC` (stereo not shown) [CBK019978] belongs 93.9%; to `NC1=NC(=O)C2(COC(c3cccnc3)OC2)S1` (stereo not shown) [CBK019981], 91.3%; to `CC(CCCC(C)(C)O)CC1OCCC(C)O1` (stereo not shown) [CBK019986], 115%. For the molecule `CC(C)S(=O)(=O)CC(=O)Nc1ccc(C(=O)O)cc1` [CBK020001], the viability at 28.5 h, 10 µM amounted to 96.6%. In the case of `O=C1CSC2(CCCCC2)N1Nc1ccccc1` [CBK020047], the viability at 28.5 h, 10 µM is 101%. As to `Cc1c(N)c(=O)n2nc(C(F)(F)F)nc2n1C` [CBK020172], the viability at 28.5 h, 10 µM stood at 90.4%. The same measure, in the same setting: to `CC(=O)NC1=NC(=O)CN1C` [CBK020181] belongs 107%. Still for that read-out and setting: to `COC(=O)NC(NC(=O)OC)C(=O)c1ccccc1` [CBK020208] belongs 100%; to `CC(=O)Nc1nonc1OCCOc1nonc1NC(C)=O` [CBK020227], 113%; to `C/C(=N\NC(=O)C(C)Sc1ncccn1)C(C)(C)C` (stereo not shown) [CBK020243], 104%. In the case of `O=S(=O)(c1ccccc1)C1CCCCO1` (stereo not shown) [CBK020284], the viability at 28.5 h, 10 µM was 91.3%. The same measure, in the same setting: to `COc1cnn(-c2ccccc2)c(=O)c1N(C)C` [CBK020317] belongs 94%. The same measure, in the same setting: as for `CN1CCC(=NNC(=O)CCSc2ccc(Cl)cc2)CC1` [CBK020372], the figure is 99.6%. The same measure, in the same setting: as for `CCSc1nnc2c3c(sc2c1N)CC(C)(C)OC3` [CBK020374], the figure is 95.4%. With `O=C(O)CCC(=O)Nc1ccc(Sc2ccc([N+](=O)[O-])cc2)cc1` [CBK020438], the viability at 28.5 h, 10 µM is 92.5%.

Consider `COc1ccc(-c2nc3c(c(=S)[nH]2)CCCC3)cc1` [CBK020440], for which the viability at 28.5 h, 10 µM was 99.2%.

Take `CC1(C)CN=C(N2CCN(C3=NCC(C)(C)S3)CC2)S1` [CBK020461]: the viability at 28.5 h, 10 µM was 93.8%. The same measure, in the same setting: to `NS(=O)(=O)c1ccccc1Sc1ccccc1` [CBK020524] belongs 89%; to `CCC1(C)Cc2sc3[nH]c(=O)c(SCC(N)=O)nc3c2CO1` (stereo not shown) [CBK020581], 87.3%.

As for `CCCCc1ccc(Nc2csc(N)n2)cc1` [CBK020594], the viability at 28.5 h, 10 µM came to 82.5%.

Take `CCOC1(c2ccccc2)N=C2C(Cl)=CC(C(F)(F)F)=CN2N=C1c1ccccc1` (stereo not shown) [CBK020634]: the viability at 28.5 h, 10 µM was found to be 91.4%.

With `Nc1nc2c3c(c(-c4ccccc4)nc2[nH]1)CCCC3` [CBK020648], the viability at 28.5 h, 10 µM stood at 78.2%. Still for that read-out and setting: as for `Nc1c(C(=S)c2cccs2)oc2c1C(c1ccccc1)CC(=O)N2` (stereo not shown) [CBK020690], the figure is 42.2%; as for `O=C(NC(=S)CC1C=NCS1)c1ccccc1` (stereo not shown) [CBK020794], 107%; as for `COCCNC(=O)CSc1cc(Cl)nc(Cl)c1` [CBK020796], 88.3%. Still for that read-out and setting: to `COc1ccc(C2NC(C(=O)O)CS2)cc1CN1C[C@@H]2C[C@H](C1)c1cccc(=O)n1C2` (stereo partly shown) [CBK020798] belongs 93.8%. As for `CC1=CC(C)(NC(N)=O)NC(=S)N1` (stereo not shown) [CBK020817], the viability at 28.5 h, 10 µM worked out at 112%. For the molecule `Cc1c(-c2csc(CC#N)n2)sc2ccccc12` [CBK020828], the viability at 28.5 h, 10 µM is 65.6%.

`O=C(O)COc1ccccc1/C=N\N1CCN(Cc2ccccc2Cl)CC1` [CBK020891]: the viability at 28.5 h, 10 µM was found to be 96.7%. The same measure, in the same setting: as for `CC(C)NC(=O)Nc1ccccc1-c1ncn(C)n1` [CBK020922], the figure is 95.6%. On the same count and under the same terms, as for `FC(F)(F)c1cc(/C=C/c2cccs2)n[nH]1` [CBK020924], the figure is 92.1%; as for `CCN(CC)c1ccc(SC)n1C` [CBK020929], 104%; as for `N/C(=N/O)c1ccc(-n2cncn2)nc1` [CBK020936], 104%. Regarding `CNCCc1n[nH]c(N)n1` [CBK020959], the viability at 28.5 h, 10 µM is 89.4%.

As to `CC1=CC(C)C(COC(N)=O)(COC(N)=O)C(C)C1` (stereo not shown) [CBK020974], the viability at 28.5 h, 10 µM (bulk resorufin, single well) is 93.7%. As to `O=C(c1ccccc1)n1cc(-c2ccccn2)c(N2CCOCC2)n1` [CBK021010], the viability at 28.5 h, 10 µM turned out to be 100%.

With `Cc1nn(C2CCCO2)c(=O)nc1N` (stereo not shown) [CBK021028], the viability at 28.5 h, 10 µM came to 101%. The same measure, in the same setting: to `N/C(=N/c1ccccn1)C(F)(F)F` [CBK021049] belongs 90.1%. Turning to `Cn1c(=O)n(C)c2cc(NC(=O)C(F)(F)F)ccc21` [CBK021127], the viability at 28.5 h, 10 µM is 80.9%. Same read-out and setting: to `O=C(O)C(Cc1ccccc1)n1cnnn1` (stereo not shown) [CBK021162] belongs 109%; to `O=C1N(Cc2ccc(Br)cc2)CCc2cncn21` [CBK021187], 79.7%.

For `COc1cc(OC)c(CN(C)CCN(C)C)cc1Br` [CBK021255], the viability at 28.5 h, 10 µM came to 88.6%. For the molecule `O=C(Cc1ccccc1)N/N=C/c1nnco1` [CBK021274], the viability at 28.5 h, 10 µM came to 121%. Take `CC(C)(C)S(=O)(=O)CC(N)=S` [CBK021304]: the viability at 28.5 h, 10 µM turned out to be 91.1%. On the same count and under the same terms, to `CN(CCc1ccccn1)Cc1cc(Br)cs1` [CBK021314] belongs 92.8%. Turning to `COC(=O)c1ccccc1S(=O)(=O)Nc1nnn[nH]1` [CBK021321], the viability at 28.5 h, 10 µM was 97.8%. On the same count and under the same terms, as for `CC1CC(=O)C2C=C(c3ccc(Br)cc3)NN=C2C1` (stereo not shown) [CBK021352], the figure is 91.8%; as for `Clc1ccc(CSCCn2cccc2)cc1` [CBK021366], 92%; as for `Nc1nnc(CSc2cccc3cccnc23)o1` [CBK021397], 108%. For the molecule `N#Cc1nc(=O)[nH]cc1N` [CBK021411], the viability at 28.5 h, 10 µM was determined as 90.8%.

For `C1=CC2N=C(SCc3ccccc3)OC2C=C1` (stereo not shown) [CBK021412], the viability at 28.5 h, 10 µM is 92.6%.

Take `Cc1csc(NS(=O)(=O)CC(C)C)n1` [CBK021434]: the viability at 28.5 h, 10 µM is 89.1%. With `COc1ccccc1C1OC(=O)C[C@@H]1C(=O)Nc1cc(C(C)(C)C)on1` (stereo partly shown) [CBK021439], the viability at 28.5 h, 10 µM was found to be 110%.

As to `CC(C)=NNC(=N)Nc1ccccc1` [CBK021452], the viability at 28.5 h, 10 µM was 90.4%. For `CCSC(C)CC1C/C(=N/O)c2c(C)noc2C1` (stereo not shown) [CBK021455], the viability at 28.5 h, 10 µM came out at 88.4%.

The viability is a read-out of living cells in per cent, often relative to untreated cells.
